Source: the NIST ThermoML archive (doi:10.1016/j.jct.2005.10.004)
Values joined by “and” are separate entries in the source; they are usually repeats but may differ in a detail not shown here. Equal entries are not always repeated. ± gives the expanded uncertainty stated by the source.

Assay: xn = mol fraction of the nth substance listed
Settings: Gas, Buoyancy - hydrostatic balance with magnetic suspension - one sinker

Structure (SMILES): N#N [nitrogen] + C
- mass density (299.91 K, 7416.3 kPa, x2 = 0.8): 59.8697 ± 0.015 kg/m3
- mass density (299.91 K, 7417.6 kPa, x2 = 0.8): 59.8813 ± 0.015 kg/m3
- mass density (299.91 K, 9999.1 kPa, x2 = 0.8): 82.4744 ± 0.02 kg/m3
- mass density (299.91 K, 10000 kPa, x2 = 0.8): 82.4859 ± 0.02 kg/m3
- mass density (299.91 K, 10001 kPa, x2 = 0.8): 82.4925 ± 0.02 kg/m3
- mass density (299.91 K, 12313 kPa, x2 = 0.8): 102.883 ± 0.024 kg/m3
- mass density (299.91 K, 12314 kPa, x2 = 0.8): 102.89 ± 0.024 kg/m3
- mass density (299.91 K, 14412 kPa, x2 = 0.8): 121.138 ± 0.029 kg/m3 and 121.127 ± 0.029 kg/m3
- mass density (299.91 K, 16342 kPa, x2 = 0.8): 137.386 ± 0.032 kg/m3
- mass density (299.91 K, 16343 kPa, x2 = 0.8): 137.395 ± 0.032 kg/m3
- mass density (299.92 K, 2421.7 kPa, x2 = 0.8): 18.4741 ± 0.006 kg/m3
- mass density (299.92 K, 4995 kPa, x2 = 0.8): 39.3048 ± 0.0097 kg/m3
- mass density (299.92 K, 9109.5 kPa, x2 = 0.8): 74.6412 ± 0.018 kg/m3
- mass density (299.99 K, 13043 kPa, x2 = 0.8998): 105.072 ± 0.026 kg/m3
- mass density (299.99 K, 15058 kPa, x2 = 0.8998): 122.114 ± 0.03 kg/m3 and 122.112 ± 0.03 kg/m3
- mass density (299.99 K, 17101 kPa, x2 = 0.8998): 138.717 ± 0.033 kg/m3 and 138.72 ± 0.033 kg/m3
- mass density (299.99 K, 19357 kPa, x2 = 0.8998): 155.97 ± 0.038 kg/m3
- mass density (299.99 K, 19358 kPa, x2 = 0.8998): 155.975 ± 0.038 kg/m3
- mass density (300 K, 899.61 kPa, x2 = 0.8998): 6.30257 ± 0.0049 kg/m3
- mass density (300 K, 2023 kPa, x2 = 0.8998): 14.4126 ± 0.0056 kg/m3
- mass density (300 K, 2023.1 kPa, x2 = 0.8998): 14.4136 ± 0.0056 kg/m3
- mass density (300 K, 2766.3 kPa, x2 = 0.8998): 19.9248 ± 0.0062 kg/m3
- mass density (300 K, 4003.3 kPa, x2 = 0.8998): 29.3523 ± 0.0076 kg/m3
- mass density (300 K, 4948.9 kPa, x2 = 0.8998): 36.7656 ± 0.0091 kg/m3
- mass density (300 K, 5998.7 kPa, x2 = 0.8998): 45.1981 ± 0.011 kg/m3
- mass density (300 K, 5998.9 kPa, x2 = 0.8998): 45.2004 ± 0.011 kg/m3
- mass density (300 K, 6904.7 kPa, x2 = 0.8): 55.4385 ± 0.014 kg/m3
- mass density (300 K, 6954.3 kPa, x2 = 0.8998): 53.0353 ± 0.013 kg/m3
- mass density (300 K, 8009.1 kPa, x2 = 0.8998): 61.855 ± 0.015 kg/m3
- mass density (300 K, 8009.7 kPa, x2 = 0.8998): 61.8592 ± 0.015 kg/m3
- mass density (300 K, 9029.6 kPa, x2 = 0.8998): 70.5133 ± 0.017 kg/m3 and 70.5136 ± 0.017 kg/m3
- mass density (300 K, 9030 kPa, x2 = 0.8998): 70.5158 ± 0.017 kg/m3
- mass density (300 K, 10050 kPa, x2 = 0.8998): 79.2704 ± 0.019 kg/m3
- mass density (300 K, 11034 kPa, x2 = 0.8998): 87.7596 ± 0.021 kg/m3
- mass density (300 K, 12063 kPa, x2 = 0.8998): 96.6441 ± 0.023 kg/m3
- mass density (300 K, 12064 kPa, x2 = 0.8998): 96.6562 ± 0.023 kg/m3
- mass density (300 K, 12996 kPa, x2 = 0.8998): 104.673 ± 0.025 kg/m3
- mass density (300 K, 14010 kPa, x2 = 0.8998): 113.319 ± 0.027 kg/m3
- mass density (300 K, 14012 kPa, x2 = 0.8998): 113.335 ± 0.027 kg/m3
- mass density (300 K, 16021 kPa, x2 = 0.8998): 130.057 ± 0.031 kg/m3
- mass density (300 K, 16023 kPa, x2 = 0.8998): 130.071 ± 0.031 kg/m3
- mass density (300 K, 17936 kPa, x2 = 0.8998): 145.268 ± 0.034 kg/m3
- mass density (300 K, 17939 kPa, x2 = 0.8998): 145.292 ± 0.034 kg/m3
- mass density (300 K, 20071 kPa, x2 = 0.8998): 161.173 ± 0.038 kg/m3
- mass density (300 K, 20074 kPa, x2 = 0.8998): 161.19 ± 0.038 kg/m3
- mass density (300.01 K, 19196 kPa, x2 = 0.8): 160.005 ± 0.037 kg/m3
- mass density (349.98 K, 2438.8 kPa, x2 = 0.8): 15.6874 ± 0.0057 kg/m3
- mass density (349.98 K, 4939.5 kPa, x2 = 0.8): 32.1898 ± 0.0082 kg/m3
- mass density (349.98 K, 17023 kPa, x2 = 0.8): 112.695 ± 0.028 kg/m3
- mass density (349.99 K, 2438.9 kPa, x2 = 0.8): 15.6871 ± 0.0057 kg/m3
- mass density (349.99 K, 4939.9 kPa, x2 = 0.8): 32.193 ± 0.0082 kg/m3
- mass density (349.99 K, 7493.5 kPa, x2 = 0.8): 49.3399 ± 0.012 kg/m3
- mass density (349.99 K, 7494.4 kPa, x2 = 0.8): 49.3451 ± 0.012 kg/m3
- mass density (349.99 K, 8821.7 kPa, x2 = 0.8): 58.3187 ± 0.015 kg/m3
- mass density (349.99 K, 8822.8 kPa, x2 = 0.8): 58.3243 ± 0.015 kg/m3
- mass density (349.99 K, 12241 kPa, x2 = 0.8): 81.3717 ± 0.021 kg/m3
- mass density (349.99 K, 12243 kPa, x2 = 0.8): 81.3884 ± 0.021 kg/m3
